This note sets out measurements from article PMC6609562, “A new split‐luciferase complementation assay identifies pentachlorophenol as an inhibitor of apoptosome formation” (FEBS Open Bio, 2019).

In test [1] the test system is T1, apoptosome (Nluc/Apaf-1 + Cluc/Apaf-1, cytochrome c, dATP).
T1 construct: gene APAF1; Apaf-1 XL fused by Gly/Ser linker to firefly luciferase fragments (Nluc 1-416; Cluc 394-550 in legend, 395-550 in methods), expressed in HEK 293, S-100 extract
Kind of test: split-luciferase complementation in S-100 extract. Format: biochemical, Homo sapiens. As to conditions: 1.6 uM cytochrome c, 1 mM dATP, 25 °C; unreliable (reporter interference). The text has this:
split-luciferase complementation in S-100 extract on apoptosome (Nluc/Apaf-1 + Cluc/Apaf-1, cytochrome c, dATP)

Test [2] shares this test system. The test can be described thus: split-luciferase complementation in S-100 extract. The test is classed as biochemical, Homo sapiens.
A further test deals with T2, cytochrome c.
T2 construct: gene CYCS
Kind of test: thermal stability shift, soluble protein by Coomassie SDS-PAGE. Format: binding. As to conditions: destabilization at 58 °C, 1 mg/mL cytochrome c.

Test [3] addresses T3, Cluc-Apaf1 (Apaf-1 XL fused to the C-terminal fragment of firefly luciferase) (human), O14727.
T3 chain: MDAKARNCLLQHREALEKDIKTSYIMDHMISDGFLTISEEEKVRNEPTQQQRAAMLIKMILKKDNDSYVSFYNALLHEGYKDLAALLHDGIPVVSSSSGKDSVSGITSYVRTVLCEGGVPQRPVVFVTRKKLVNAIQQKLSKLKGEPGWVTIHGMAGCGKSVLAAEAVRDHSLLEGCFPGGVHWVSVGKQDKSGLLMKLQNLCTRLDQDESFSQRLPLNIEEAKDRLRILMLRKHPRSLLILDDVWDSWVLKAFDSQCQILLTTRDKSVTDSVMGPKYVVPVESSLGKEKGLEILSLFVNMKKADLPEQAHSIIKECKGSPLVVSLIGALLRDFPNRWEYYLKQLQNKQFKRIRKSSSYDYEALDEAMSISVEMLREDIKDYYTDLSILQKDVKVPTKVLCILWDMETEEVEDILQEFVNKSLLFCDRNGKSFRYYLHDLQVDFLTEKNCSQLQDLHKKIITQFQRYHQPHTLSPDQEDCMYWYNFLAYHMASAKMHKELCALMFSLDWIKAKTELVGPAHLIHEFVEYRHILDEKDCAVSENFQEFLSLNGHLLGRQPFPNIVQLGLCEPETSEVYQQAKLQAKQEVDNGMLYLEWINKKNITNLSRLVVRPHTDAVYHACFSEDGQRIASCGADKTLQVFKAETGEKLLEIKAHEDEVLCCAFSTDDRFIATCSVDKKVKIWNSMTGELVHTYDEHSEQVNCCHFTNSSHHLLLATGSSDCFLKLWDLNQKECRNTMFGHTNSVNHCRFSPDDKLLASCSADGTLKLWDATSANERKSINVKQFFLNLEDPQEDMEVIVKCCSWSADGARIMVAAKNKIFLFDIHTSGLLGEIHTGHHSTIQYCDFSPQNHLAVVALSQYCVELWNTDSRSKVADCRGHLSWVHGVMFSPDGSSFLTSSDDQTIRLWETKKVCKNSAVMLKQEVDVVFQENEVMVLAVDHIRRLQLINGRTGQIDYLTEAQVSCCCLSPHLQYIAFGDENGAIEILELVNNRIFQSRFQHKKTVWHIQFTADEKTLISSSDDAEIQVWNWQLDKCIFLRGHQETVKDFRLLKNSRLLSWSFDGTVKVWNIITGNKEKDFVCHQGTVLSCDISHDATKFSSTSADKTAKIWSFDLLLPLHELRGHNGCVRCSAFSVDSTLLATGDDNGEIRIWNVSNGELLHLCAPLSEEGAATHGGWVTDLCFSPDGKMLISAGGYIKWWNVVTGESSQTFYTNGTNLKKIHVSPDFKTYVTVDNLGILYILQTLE
Kind of test: split reporter (BiFC, NanoBiT); split firefly luciferase complementation; ice-cold S-100 extracts of Nluc-Apaf1 and Cluc-Apaf1 cells mixed 1:1, with and without 1.6 μM cytochrome c and 1 mM dATP (cytochrome c titrated in one experiment); One-Glo Luciferase Assay System, light read at 25 °C over 15 min. The settings on record: remark: other sources report otherwise.

Like-named read-outs stand apart in the source and are kept apart here.

Turning to `Clc1nc(Cl)nc(Nc2ccccc2Cl)n1` [Anilazine], the “IC50 (mM) / S. luc” value in test [1] is on record as 2.99 mM.

Turning to `O=C(Nc1cccc(C(F)(F)F)c1)Nc1cc(Cl)ccc1C(=O)O` [NS3694, 4‐chloro‐2‐[[3‐(trifluoromethyl)phenyl]carbamoylamino]benzoic acid], the IC50 in test [2] (diluted extract, cytochrome c and dATP added, read-out: IC50) is approximately 0.17 mM.

With `Oc1c(Cl)c(Cl)c(Cl)c(Cl)c1Cl` [Pentachlorophenol], in the test with cytochrome c, the EC50 was approximately 600 µM. For the same molecule, the IC50 in test [2] (1.6 uM cytochrome c, 1 mM dATP, 25 °C, site assigned to cytochrome c, read-out: IC50 (mM) / S. luc) was found to be 0.17 mM.

Regarding `CN(C)C1CSSSC1` [Thiocyclam], in test [1], the “IC50 (mM) / S. luc” value came out at 0.20 mM.

Regarding `CN(C)C(=S)SSC(=S)N(C)C` [Thiram], the “IC50 (mM) / S. luc” value in test [1] is given as 1.38 mM.

B1: Nluc-Apaf1 (Apaf-1 XL fused to the N-terminal fragment of firefly luciferase), O14727-1 1-1248 (natural protein)
chain: MDAKARNCLLQHREALEKDIKTSYIMDHMISDGFLTISEEEKVRNEPTQQQRAAMLIKMILKKDNDSYVSFYNALLHEGYKDLAALLHDGIPVVSSSSGKDSVSGITSYVRTVLCEGGVPQRPVVFVTRKKLVNAIQQKLSKLKGEPGWVTIHGMAGCGKSVLAAEAVRDHSLLEGCFPGGVHWVSVGKQDKSGLLMKLQNLCTRLDQDESFSQRLPLNIEEAKDRLRILMLRKHPRSLLILDDVWDSWVLKAFDSQCQILLTTRDKSVTDSVMGPKYVVPVESSLGKEKGLEILSLFVNMKKADLPEQAHSIIKECKGSPLVVSLIGALLRDFPNRWEYYLKQLQNKQFKRIRKSSSYDYEALDEAMSISVEMLREDIKDYYTDLSILQKDVKVPTKVLCILWDMETEEVEDILQEFVNKSLLFCDRNGKSFRYYLHDLQVDFLTEKNCSQLQDLHKKIITQFQRYHQPHTLSPDQEDCMYWYNFLAYHMASAKMHKELCALMFSLDWIKAKTELVGPAHLIHEFVEYRHILDEKDCAVSENFQEFLSLNGHLLGRQPFPNIVQLGLCEPETSEVYQQAKLQAKQEVDNGMLYLEWINKKNITNLSRLVVRPHTDAVYHACFSEDGQRIASCGADKTLQVFKAETGEKLLEIKAHEDEVLCCAFSTDDRFIATCSVDKKVKIWNSMTGELVHTYDEHSEQVNCCHFTNSSHHLLLATGSSDCFLKLWDLNQKECRNTMFGHTNSVNHCRFSPDDKLLASCSADGTLKLWDATSANERKSINVKQFFLNLEDPQEDMEVIVKCCSWSADGARIMVAAKNKIFLFDIHTSGLLGEIHTGHHSTIQYCDFSPQNHLAVVALSQYCVELWNTDSRSKVADCRGHLSWVHGVMFSPDGSSFLTSSDDQTIRLWETKKVCKNSAVMLKQEVDVVFQENEVMVLAVDHIRRLQLINGRTGQIDYLTEAQVSCCCLSPHLQYIAFGDENGAIEILELVNNRIFQSRFQHKKTVWHIQFTADEKTLISSSDDAEIQVWNWQLDKCIFLRGHQETVKDFRLLKNSRLLSWSFDGTVKVWNIITGNKEKDFVCHQGTVLSCDISHDATKFSSTSADKTAKIWSFDLLLPLHELRGHNGCVRCSAFSVDSTLLATGDDNGEIRIWNVSNGELLHLCAPLSEEGAATHGGWVTDLCFSPDGKMLISAGGYIKWWNVVTGESSQTFYTNGTNLKKIHVSPDFKTYVTVDNLGILYILQTLE
B1 returned an EC50 of cytochrome c for split luciferase activity in test [3] of 0.15 µM.
